Experimental data as given in US20140296146A1, “Thermostable Inhibitors of Activation of the Blood Clotting System Through Contact with Foreign Surfaces” (Synapse B.V., priority 2011, published 2014).
Where a SMILES comes first, the peptide text is derived from it. Bridges are numbered along the chain shown (N, C = ends).

Assays:
h-FXIIa [1] = biological target: T1, h-FXIIa (Homo sapiens, UniProt P00748); experiment: Effect of inhibitors on hydrolysis of S2302 by h-FXIIa; assay type: biochemical
T1 construct: purchased Enzyme Research Laboratories FXIIa 1212A
T1 sequence (P00748 373-615 limits assumed): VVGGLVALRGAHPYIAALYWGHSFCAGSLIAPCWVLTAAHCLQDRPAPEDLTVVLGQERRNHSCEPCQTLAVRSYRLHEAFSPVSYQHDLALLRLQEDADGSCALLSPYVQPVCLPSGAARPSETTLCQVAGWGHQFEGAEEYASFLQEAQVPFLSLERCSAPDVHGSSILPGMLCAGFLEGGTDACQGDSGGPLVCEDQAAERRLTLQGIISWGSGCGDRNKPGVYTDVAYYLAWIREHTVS
T1 sequence (P00748 20-372 partner limits assumed): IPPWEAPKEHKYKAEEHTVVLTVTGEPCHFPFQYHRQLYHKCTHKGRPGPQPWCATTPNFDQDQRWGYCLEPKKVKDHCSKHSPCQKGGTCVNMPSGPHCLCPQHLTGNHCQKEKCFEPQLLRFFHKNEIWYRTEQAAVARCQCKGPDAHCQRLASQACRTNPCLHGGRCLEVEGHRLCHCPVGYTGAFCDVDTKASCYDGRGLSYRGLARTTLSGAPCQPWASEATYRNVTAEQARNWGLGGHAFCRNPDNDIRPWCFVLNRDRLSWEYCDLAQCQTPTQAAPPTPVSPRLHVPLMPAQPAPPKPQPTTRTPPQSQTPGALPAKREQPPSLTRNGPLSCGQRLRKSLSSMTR
Protocol: (§1) Materials • S2302 From Chromogenic, lot # N0398718 SEQ0860, exp. date 2012-07. Water added on 7 Oct. […] On 3 Aug. […] Product code FXIIa 1212A, lot #FXIIa 2520PL. Bottle with 0.5 mg was reconstituted with 370 μl pure water. […] Buffer 4 mM NaAc, 150 mM NaCl (pH 5.3). Preparation was divided into 20 μl amounts and frozen at −80° C. • Hepes735 140 mM NaCl, 20 mM Hepes, 0.02% NaN3 (pH 7.35). • BSA5 Hepes735+5 mg/ml BSA. • CTI Prepared on 17 Dec. 2004, 0.141 mg/ml, i.e. 0.141/12028=11.7*10^−6 M (11.7 μM). One portion was thawed and divided into 3 parts. Part 1 was frozen at −80° C.; part 2 was kept at RT; and part 3 was incubated 30 min at 95° C. and then kept at RT.
(§2) Stock FXIIa was diluted 700× in BSA5. The inhibitor was diluted in BSA5 as indicated. Wells contained 70 μl diluted FXIIa (5 nM final), 70 μl inhibitor and 20 μl S2302 (475 or 462.5 μM final). The reaction was started after 5 min heating on the heating plate with S2302. Filters 405 nm and 490 nm reference. Found mΔA/min was multiplied by 2.14 to get the figure for a 1 cm path.
The residual activity (V) was fitted against the PTI concentration with equation:
(§3) V=(E+(sqrt(Ê2+2*E*(Ki−I)+Î2+2*I*Ki+Kî2)−E−I−Ki)/2)*kcat*S/(Km+S)
(§4) in which E=[FXIIa], Ki is the dissociation constant, I=[Inhibitor], kcat and Km are Michaelis constants and S=[S2302].

contact activation = experiment: Thrombin generation (CAT) in platelet poor plasma contact activated with kaolin; assay type: biochemical, human; settings: concentration that prolongs clotting time of kaolin contact activated plasma four times
Protocol: Thrombin generation was carried out according to WO2003/093831.
Following a double centrifugation at 2500×g for 15 min at room temperature, platelet poor plasma (PPP) was collected from the upper half volume of plasma supernatant, quick frozen and stored at −80° C. The absence of platelet and leucocyte in PPP was checked with an ADVIA 120 counter (Bayer Diagnostics, NY, USA).
Recombinant human tissue factor Innovin® was obtained from Dade Behring (Marburg, Germany) and used at a final concentration of 0.5 pM in PRP and 1 or 5 pM in PPP samples. The phospholipid vesicles used at a final concentration of […] were obtained from Avanti Polar Lipids (Alabaster, Ala., USA) and consisted of 20 mol % phosphatidylserine (PS), 20 mol % phosphatidylethanolamine (PE) and 60 mol % phosphatidylcholine (PC) and were prepared by extrusion method (9,10). Kaolin light (hydrated aluminium silicate) was obtained from Baker Harrison ltd, (Ilford, UK).
Hepes-buffered saline contained 20 mM Hepes (Sigma Aldrich, l'Ile d'Abeau Chesnes, France), 140 mM NaCl and 5 mg/mL bovine serum albumin (BSA) (Euromedex, Souffelweyersheim, France), pH 7.35. This buffer was stored at −20° C. until use. A fresh mixture of fluorogenic substrate and CaCl2 was prepared before each experiment. Fluorogenic substrate, Z-Gly-Gly-Arg-AMC, was obtained from Bachem (Bubendorf, Switzerland). The mixture of fluorogenic substrate 2.5 mM and CaCl2 0.1 M was prepared using buffer containing Hepes 20 mM and 60 mg/mL BSA, pH 7.35. The Calibrator with the activity of 600 nM human thrombin was obtained from Thrombinoscope BV (Maastricht, The Netherlands). Transparent, round bottom Greiner microtiter plates (Greiner ref 65204, Poitiers, France) were used.
Thrombin generation was measured using Calibrated Automated Thrombography (CAT) according to the methodology of WO2003/093831 and a 96-well plate fluorometer (Fluoroscan Ascent Reader, Thermolab systems OY, Helsinki, Finland) equipped with a 390/460 nm filter set. Briefly, 80 μL of plasma is dispensed into the wells of round-bottom 96 well-microtiter plates. 20 μL of a mixture containing tissue factor and phospholipids is added to the PPP sample; alternatively, in order to obtain contact activation, the citrated plasma is preincubated for at least 10 min with 1 mg/ml of Kaolin light. The starting reagent (20 μL per well) contains fluorogenic substrate and CaCl2. […] The most important parameters that can be derived from CAT are lag time, endogenous thrombin potential corresponding to the area under the CAT curve, peak height of thrombin and time to peak.

h-FXIIa [2] = biological target: T1, h-FXIIa; experiment: Stability of CTI, PTI and TICA at RT and at 95° C., read as inhibition of h-FXIIa; assay type: physicochemical
Protocol: as §1, with “Part 1 was frozen at −80° C.; part 2 was kept at RT; and part 3 was incubated 30 min at 95° C. and then kept at RT.” left out
as §2, with “ΔmA/min” for “mΔA/min”
The residual activity (V) was fitted against the inhibitor concentration with equation:
as §3, §4
To calculate the concentration of I the equation I=x·(x−E−Ki)/(x−E) was used. In this equation is I the calculated inhibitor concentration, x=the residual activity of FXIIa (free FXIIa), E the total FXIIa concentration (=9.33 nM), and Ki the dissociation or inhibitor constant.

[3] = ki F.XIIa (ng/ml), Before heating

| Structure (SMILES) | Ki (h-FXIIa [1]; Ki, Table 2, inhibitory activity of different polypeptides) [nM] | Ki (h-FXIIa [1]; [3]) [nM] | 4 × lag-time (ng/ml) (contact activation; After heating) [ng/mL] | 4 × lag-time (μM) (contact activation; After heating) [µM] | 4 × lag-time (ng/ml) (contact activation; Before heating) [ng/mL] | 4 × lag-time (μM) (contact activation; Before heating) [µM] | Res. Act. (%) (h-FXIIa [2]; inhibitor 30 min 95° C.) | Res. Act. (%) (h-FXIIa [2]; inhibitor at RT during 72 hrs) | Res. Act. (%) (h-FXIIa [2]; inhibitor kept at −80° C.) | Ki (h-FXIIa [1]; ki F.XIIa (nM), Before heating) [nM] |
| --- | --- | --- | --- | --- | --- | --- | --- | --- | --- | --- |
| CC[C@H](C)[C@@H]1NC(=O)[C@H](CCCNC(=N)N)NC(=O)[C@@H]2CCCN2C(=O)[C@@H](NC(=O)[C@@H](NC(=O)[C@@H](N)CCCNC(=N)N)C(C)C)CSSC[C@@H]2NC(=O)[C@H](CCC(=O)O)NC(=O)[C@H](C)NC(=O)[C@H](CC(C)C)NC(=O)[C@@H]3CSSC[C@@H](C(=O)NCC(=O)O)NC(=O)[C@H](Cc4ccc(O)cc4)NC(=O)CNC(=O)[C@H](Cc4c[nH]cn4)NC(=O)[C@H](CCC(=O)O)NC(=O)[C@H](CC(C)C)NC(=O)[C@H](CSSC[C@H](NC(=O)[C@H](CCC(=O)O)NC(=O)[C@H](CCSC)NC(=O)[C@H](CC(C)C)NC1=O)C(=O)N[C@@H](CCCCN)C(=O)N[C@@H](CCCCN)C(=O)N[C@@H](CC(=O)O)C(=O)N[C@@H](CO)C(=O)N[C@@H](CC(=O)O)C(=O)N3)NC(=O)[C@H](C(C)C)NC2=O [TICA2] (H-RVCPRILMECKKDSDCLAECVCLEHGYCG-OH; disulfide 3-20, 10-22, 16-28 (inferred); N-terminus and C-terminus assumed) | 109 | 109 | 31.9 | 9.8 | 31.1 | 9.6 | 99 | 105 | 100 | – |
| CC[C@H](C)[C@@H]1NC(=O)[C@@H]2CSSC[C@H](NC(=O)[C@@H](NC(=O)[C@@H](N)CCCNC(=N)N)C(C)C)C(=O)N3CCC[C@H]3C(=O)N[C@@H](CCCCN)C(=O)N[C@@H]([C@@H](C)CC)C(=O)N[C@@H](CC(C)C)C(=O)N[C@@H](CCSC)C(=O)N[C@@H](CCC(=O)O)C(=O)N[C@H]3CSSC[C@H](NC1=O)C(=O)N[C@@H](CC(C)C)C(=O)N[C@@H](CCC(=O)O)C(=O)N[C@@H](Cc1c[nH]cn1)C(=O)NCC(=O)N[C@@H](Cc1ccc(O)cc1)C(=O)N[C@H](C(=O)NCC(=O)O)CSSC[C@H](NC(=O)[C@H](CC(=O)O)NC(=O)[C@H](CO)NC(=O)[C@H](CC(=O)O)NC(=O)[C@H](CCCCN)NC(=O)[C@H](CCCCN)NC3=O)C(=O)N[C@@H](CC(C)C)C(=O)N[C@@H](C)C(=O)N[C@@H](CCC(=O)O)C(=O)N2 [TICA4] (H-RVCPKILMECKKDSDCLAECICLEHGYCG-OH; disulfide 3-20, 10-22, 16-28 (inferred); N-terminus and C-terminus assumed) | – | 1420 | 102.9 | 31.4 | 102.7 | 31.6 | 94 | 98 | 100 | 1420 |
